Experimental data: article PMC5582255, “Partial Purification and Characterization of the Recombinant Benzaldehyde Dehydrogenase from Rhodococcus ruber UKMP-5M” (Iranian Journal of Biotechnology, 2017)

Test system: T1, BZDH (benzaldehyde dehydrogenase, xylC)
T1 construct: xylC ORF of 792 bp, 264 aa, ~27 kDa, homologous to the C-terminal half of other aldehyde dehydrogenases; DEAE ion exchange; forward primer […]; (encodes MSPSPVPPR), reverse primer […]; (C-terminus ...DVPGYPF)
Assay: NADH formation at […] nm, Lineweaver-Burk
Format: biochemical, Rhodococcus ruber
Details: co-substrate NAD (standard assay 5 mM, 50 mM glycine-NaOH); 25 °C; benzaldehyde 0.005-4 mM; pH of kinetic run not stated

O=Cc1ccccc1 [benzaldehyde]
Km: 4.2 mM
